Test results as given in PubChem BioAssay AID220 (DTP/NCI, 2004).
“And” between values parts separate entries of the source, which are not always exact repeats. Equal entries are not always repeated. Inconclusive results are not listed.

System: CD8F1 mice, subcutaneous mammary adenocarcinoma, T/C%
Experiment: NCI In Vivo Anticancer Drug Screen. Data for tumor model Mammary Adenocarcinoma CD8F1 (subcutaneous) in CD8F1
Conditions: higher = larger tumour
How it was run: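 Transplantable tumors were established in mice, animals were dosed with compound or vehicle, and survival or tumor size was then measured in both groups. The treated result was divided by the control result.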

[1] = endpoint: median tumor weight change, dose: 62.5 mg/kg/injection, schedule: Q01DX001 (ip), vehicle: Klucel (hydroxypropylcellulose) (HPC)
[2] = endpoint: median tumor weight change, dose: 125.0 mg/kg/injection, schedule: Q01DX001 (ip), vehicle: Klucel (hydroxypropylcellulose) (HPC)
[3] = endpoint: median tumor weight (est.), dose: 25.0 mg/kg/injection, schedule: Q07DX005 (ip), vehicle: Klucel (hydroxypropylcellulose) (HPC)
[4] = endpoint: median tumor weight (est.), dose: 50.0 mg/kg/injection, schedule: Q07DX005 (ip), vehicle: Klucel (hydroxypropylcellulose) (HPC)

CN1CCc2c(c3ccccc3c3ccccc23)C1
T/C (endpoint: median tumor weight change, dose: 12.5 mg/kg/injection, schedule: Q01DX001 (ip), vehicle: Klucel (hydroxypropylcellulose) (HPC)): 57 % of control
T/C (endpoint: median tumor weight change, dose: 25.0 mg/kg/injection, schedule: Q01DX001 (ip), vehicle: Klucel (hydroxypropylcellulose) (HPC)): 65 % of control
T/C (endpoint: median tumor weight change, dose: 50.0 mg/kg/injection, schedule: Q01DX001 (ip), vehicle: Klucel (hydroxypropylcellulose) (HPC)): 49 % of control
T/C [1]: 74 % of control
T/C (endpoint: median tumor weight change, dose: 100.0 mg/kg/injection, schedule: Q01DX001 (ip), vehicle: Klucel (hydroxypropylcellulose) (HPC)): 27 % of control
T/C [2]: 56 % of control

CN(C)CCN1C(=O)c2cccc3cc(N)cc(c23)C1=O
T/C (endpoint: median tumor weight change, dose: 10.0 mg/kg/injection, schedule: Q01DX001 (ip), vehicle: saline with Tween-80): 81 % of control and 92 % of control
T/C (endpoint: median tumor weight change, dose: 40.0 mg/kg/injection, schedule: Q01DX001 (ip), vehicle: saline with Tween-80): 42 % of control and 44 % of control and 61 % of control

CC1c2ccccc2CC(CCN(C)C)c2ccccc21 (stereo not drawn)
T/C (endpoint: median tumor weight change, dose: 1.95 mg/kg/injection, schedule: Q01DX001 (ip), vehicle: saline with Tween-80): 76 % of control
T/C (endpoint: median tumor weight change, dose: 3.9 mg/kg/injection, schedule: Q01DX001 (ip), vehicle: saline with Tween-80): 71 % of control
T/C (endpoint: median tumor weight change, dose: 7.8 mg/kg/injection, schedule: Q01DX001 (ip), vehicle: saline with Tween-80): 87 % of control
T/C (endpoint: median tumor weight change, dose: 15.62 mg/kg/injection, schedule: Q01DX001 (ip), vehicle: saline with Tween-80): 73 % of control

CC[C@@H](C)[C@@H]1NC(=O)C(NC(=O)C(CC(C)C)N(C)C(=O)C2CCCN2C(=O)C(C)O)C(C)OC(=O)C(Cc2ccc(OC)cc2)N(C)C(=O)C2CCCN2C(=O)C(CC(C)C)NC(=O)C(C)C(=O)C(C(C)C)OC(=O)C[C@H]1O (stereo partly drawn)
T/C (endpoint: median tumor weight change, dose: 20.0 micrograms/kg/injection, schedule: Q01DX001 (ip), vehicle: distilled water + alcohol): 73 % of control
T/C (endpoint: median tumor weight change, dose: 40.0 micrograms/kg/injection, schedule: Q01DX001 (ip), vehicle: distilled water + alcohol): 55 % of control
T/C (endpoint: median tumor weight change, dose: 300.0 micrograms/kg/injection, schedule: Q01DX001 (ip), vehicle: distilled water + alcohol): 63 % of control
T/C (endpoint: median tumor weight change, dose: 320.0 micrograms/kg/injection, schedule: Q01DX001 (ip), vehicle: distilled water + alcohol): 88 % of control
T/C (endpoint: median tumor weight change, dose: 600.0 micrograms/kg/injection, schedule: Q01DX001 (ip), vehicle: distilled water + alcohol): 71 % of control
T/C (endpoint: median tumor weight change, dose: 1200.0 micrograms/kg/injection, schedule: Q01DX001 (ip), vehicle: distilled water + alcohol): 37 % of control

CCc1ccc(C2=C(O)C(=O)C(c3ccccc3)=C(O)C2=O)cc1
T/C (endpoint: median tumor weight change, dose: 31.25 mg/kg/injection, schedule: Q01DX001 (ip), vehicle: Klucel (hydroxypropylcellulose) (HPC)): 84 % of control
T/C [1]: 106 % of control
T/C [2]: 59 % of control

CC(C)CCCCCCCCCCCCC(=O)NCC(=O)NC1C(C)OC(Nc2ncnc3nc[nH]c23)C(O)C1O (stereo not drawn)
T/C (endpoint: median tumor weight (est.), dose: 8.0 mg/kg/injection, schedule: Q07DX005 (ip), vehicle: distilled water + Tween-80): 51 % of control
T/C (endpoint: median tumor weight (est.), dose: 16.0 mg/kg/injection, schedule: Q07DX005 (ip), vehicle: distilled water + Tween-80): 12 % of control

O=C1C2(Cl)C3(Cl)C4(Cl)C(Cl)(Cl)C5(Cl)[C@]3(Cl)C1(Cl)[C@]5(Cl)C24Cl (stereo partly drawn)
T/C (endpoint: median tumor weight (est.), dose: 12.5 mg/kg/injection, schedule: Q07DX005 (ip), vehicle: Klucel (hydroxypropylcellulose) (HPC)): 71 % of control
T/C [3]: 91 % of control
T/C [4]: 67 % of control

Nc1nncs1
T/C [3]: 72 % of control and 85 % of control
T/C [4]: 44 % of control and 62 % of control
T/C (endpoint: median tumor weight (est.), dose: 100.0 mg/kg/injection, schedule: Q07DX005 (ip), vehicle: Klucel (hydroxypropylcellulose) (HPC)): 34 % of control
T/C (endpoint: median tumor weight (est.), dose: 400.0 mg/kg/injection, schedule: Q07DX005 (ip), vehicle: Klucel (hydroxypropylcellulose) (HPC)): 24 % of control and 49 % of control

Cc1c2cc[n+](CCN3CCCCC3)cc2c(C)c2c1[nH]c1ccc(O)cc12
T/C (endpoint: median tumor weight change, dose: 7.81 mg/kg/injection, schedule: Q01DX001 (ip), vehicle: suspension in saline): 83 % of control
T/C (endpoint: median tumor weight change, dose: 15.6 mg/kg/injection, schedule: Q01DX001 (ip), vehicle: suspension in saline): 102 % of control and 116 % of control

O=NN(CCF)C(=O)NC1CCCCC1
T/C (endpoint: median tumor weight change, dose: 4.0 mg/kg/injection, schedule: Q01DX001 (ip), vehicle: Klucel (hydroxypropylcellulose) (HPC)): 87 % of control
T/C (endpoint: median tumor weight change, dose: 16.0 mg/kg/injection, schedule: Q01DX001 (ip), vehicle: Klucel (hydroxypropylcellulose) (HPC)): 44 % of control
T/C (endpoint: median tumor weight change, dose: 31.0 mg/kg/injection, schedule: Q01DX001 (ip), vehicle: Klucel (hydroxypropylcellulose) (HPC)): 45 % of control
T/C [1]: 30 % of control

CS(=O)(=O)OCCN(CCOS(C)(=O)=O)c1ccc(C=O)cc1
T/C (endpoint: median tumor weight (est.), dose: 6.25 mg/kg/injection, schedule: Q07DX005 (ip), vehicle: saline with Tween-80): 62 % of control
T/C (endpoint: median tumor weight (est.), dose: 12.5 mg/kg/injection, schedule: Q07DX005 (ip), vehicle: saline with Tween-80): 62 % of control and 83 % of control
T/C (endpoint: median tumor weight (est.), dose: 25.0 mg/kg/injection, schedule: Q07DX005 (ip), vehicle: saline with Tween-80): 35 % of control
T/C (endpoint: median tumor weight (est.), dose: 200.0 mg/kg/injection, schedule: Q07DX005 (ip), vehicle: saline with Tween-80): 85 % of control

CSc1ncc2ncn(C3OC(CO)C(O)C3O)c2n1 (stereo not drawn)
T/C (endpoint: median tumor weight change, dose: 250.0 mg/kg/injection, schedule: Q01DX001 (ip), vehicle: Klucel (hydroxypropylcellulose) (HPC)): 92 % of control
T/C (endpoint: median tumor weight change, dose: 500.0 mg/kg/injection, schedule: Q01DX001 (ip), vehicle: Klucel (hydroxypropylcellulose) (HPC)): 110 % of control
T/C (endpoint: median tumor weight change, dose: 1000.0 mg/kg/injection, schedule: Q01DX001 (ip), vehicle: Klucel (hydroxypropylcellulose) (HPC)): 57 % of control

COc1cccc2c1C(=O)c1c(O)c3c(c(O)c1C2=O)C[C@@](O)(C(=O)CO)C[C@@H]3OC1CC(OC(C)=O)C(OC(C)=O)C(C)O1 (stereo partly drawn)
T/C (endpoint: median tumor weight (est.), dose: 3.12 mg/kg/injection, schedule: Q07DX005 (ip), vehicle: distilled water + Tween-80): 65 % of control
T/C (endpoint: median tumor weight (est.), dose: 6.25 mg/kg/injection, schedule: Q07DX005 (ip), vehicle: distilled water + Tween-80): 58 % of control
T/C (endpoint: median tumor weight (est.), dose: 12.5 mg/kg/injection, schedule: Q07DX005 (ip), vehicle: distilled water + Tween-80): 6 % of control
T/C (endpoint: median tumor weight (est.), dose: 25.0 mg/kg/injection, schedule: Q07DX005 (ip), vehicle: distilled water + Tween-80): 13 % of control

O=C(O)CSc1nc(-c2ccccc2)c(-c2ccccc2)n1-c1ccccn1
T/C (endpoint: median tumor weight (est.), dose: 12.5 mg/kg/injection, schedule: Q07DX005 (ip), vehicle: water): 63 % of control and 72 % of control
T/C (endpoint: median tumor weight (est.), dose: 25.0 mg/kg/injection, schedule: Q07DX005 (ip), vehicle: water): 217 % of control and 78 % of control
T/C (endpoint: median tumor weight (est.), dose: 200.0 mg/kg/injection, schedule: Q07DX005 (ip), vehicle: water): 64 % of control

C1CC[N-]CC1.[Cl][Pt+2][Cl].[NH-]C1CC1
T/C (endpoint: median tumor weight change, dose: 31.0 mg/kg/injection, schedule: Q01DX001 (ip), vehicle: water): 116 % of control
T/C (endpoint: median tumor weight change, dose: 62.0 mg/kg/injection, schedule: Q01DX001 (ip), vehicle: water): 121 % of control
T/C (endpoint: median tumor weight change, dose: 62.5 mg/kg/injection, schedule: Q01DX001 (ip), vehicle: distilled water + Tween-80): 26 % of control
T/C (endpoint: median tumor weight change, dose: 125.0 mg/kg/injection, schedule: Q01DX001 (ip), vehicle: water): 21 % of control

NC(=S)c1ncn(C2OC(CO)C(O)C2O)c1N (stereo not drawn)
T/C (endpoint: median tumor weight (est.), dose: 12.5 mg/kg/injection, schedule: Q07DX005 (ip), vehicle: saline): 31 % of control
T/C (endpoint: median tumor weight (est.), dose: 25.0 mg/kg/injection, schedule: Q07DX005 (ip), vehicle: saline): 48 % of control
T/C (endpoint: median tumor weight (est.), dose: 25.0 mg/kg/injection, schedule: Q07DX005 (ip), vehicle: suspension in saline): 192 % of control
T/C (endpoint: median tumor weight (est.), dose: 50.0 mg/kg/injection, schedule: Q07DX005 (ip), vehicle: saline): 39 % of control
T/C (endpoint: median tumor weight (est.), dose: 50.0 mg/kg/injection, schedule: Q07DX005 (ip), vehicle: suspension in saline): 49 % of control
T/C (endpoint: median tumor weight (est.), dose: 100.0 mg/kg/injection, schedule: Q07DX005 (ip), vehicle: saline): 31 % of control
T/C (endpoint: median tumor weight (est.), dose: 100.0 mg/kg/injection, schedule: Q07DX005 (ip), vehicle: suspension in saline): 45 % of control
T/C (endpoint: median tumor weight (est.), dose: 200.0 mg/kg/injection, schedule: Q07DX005 (ip), vehicle: saline): 12 % of control
T/C (endpoint: median tumor weight (est.), dose: 200.0 mg/kg/injection, schedule: Q07DX005 (ip), vehicle: suspension in saline): 95 % of control
T/C (endpoint: median tumor weight (est.), dose: 400.0 mg/kg/injection, schedule: Q07DX005 (ip), vehicle: saline): 10 % of control
T/C (endpoint: median tumor weight (est.), dose: 400.0 mg/kg/injection, schedule: Q07DX005 (ip), vehicle: suspension in saline): 121 % of control

CN(C)CCN1C(=O)c2cccc3cc([N+](=O)[O-])cc(c23)C1=O
T/C (endpoint: median tumor weight change, dose: 7.5 mg/kg/injection, schedule: Q01DX001 (ip), vehicle: saline with Tween-80): 57 % of control
T/C (endpoint: median tumor weight change, dose: 15.0 mg/kg/injection, schedule: Q01DX001 (ip), vehicle: saline with Tween-80): 91 % of control
T/C (endpoint: median tumor weight change, dose: 30.0 mg/kg/injection, schedule: Q01DX001 (ip), vehicle: saline with Tween-80): 55 % of control
